Reference: patent US20080299076A1, “Compunds and compositions that cause non-apoptotic cell death and uses thereof” (priority 2006, published 2008)
“Also recorded” adds a separate entry of the source. Read-outs that look alike come from different tables or passages of the source.

Assays:
[1] = test system: BJ-TERT/LT/ST/RAS^V12 cells; test: Alamar Blue viability assay; format: cell-based, human; conditions: for IC50: BJ-TERT/LT/ST/RAS^V12 (BJELR) cells, read-out: IC50 (lethality); for Selective lethality / activity of erastin analog: BJ-TERT/LT/ST/RAS^V12 cells versus BJ-TERT cells
Procedure: (a) Calu-1 lung carcinoma cells harboring oncogenic KRAS were infected with lentivirus containing shRNAs targeting KRAS or GFP. Sequences of shRNAs are indicated by starting nucleotide (nt) in the KRAS mRNA coding sequence. Cells were treated with erastin and viability measured by Trypan Blue exclusion. (b) Knockdown of KRAS was confirmed by western blot. (c,d) A673 cells harboring oncogenic BRAF were infected with lentiviral shRNAs targeting BRAF exon 5 (c) or the 5′ UTR (d), luciferase (LUC) (c) or GFP (d). Cells were treated with erastin and viability measured using Alamar Blue (c) and Trypan Blue (d). (e) Knockdown of BRAF was confirmed by western blot. […] BJ-TERT/LT/ST/RAS^V12 cells were treated with erastin alone or in with a MEK inhibitor U0126 (20 μM), MEK inhibitor I (10 μM) or MEK 1/2 inhibitor (50 μM). After 48 h, viability was determined using Trypan Blue. (g) Structures of certain erastin and related analogs. (h) and (i) Dose-response curves were measured for erastin A3 and erastin B2 in BJ-TERT/LT/ST/RAS^V12 cells (black squares) or BJ-TERT cells (grey circles). (j) Calu-1 lung carcinoma cells harboring oncogenic KRAS were infected with lentivirus containing shRNAs targeting KRAS or GFP. Sequences of shRNAs are indicated by starting nucleotide (nt) in the KRAS mRNA coding sequence. Cells were treated with erastin and viability (y-axis) measured by Trypan Blue exclusion. Cells were treated with erastin for 24 hours, and percent inhibition of viability (y-axis) measured using Alamar Blue (k) and Trypan Blue (l). (m) Structures of erastin and related analogs. (n) Dose-response curves were measured for erastin A6, erastin B2, erastin A8 and erastin A9 in BJ-TERT/LT/ST/RAS^V12 cells (squares) or BJ-TERT cells (circles) using Alamar Blue.
Alamar Blue metabolism: 10% Alamar Blue was added to assay plates, which were then incubated for an additional 16 hours. Red fluorescence, resulting from reduction of Alamar Blue, was detected on a Victor3 platereader (ex: 530, em: 590).
Table 2. Activity of RAS-selective lethal compound erastin in tumor cell lines. IC50 values (ng/mL) are shown using the Alamar Blue viability assay. BJ engineered tumor cells express TERT, LT, ST, and oncogenic RAS. Isogenic RAS^V12 lacking cells are identical but lack HRAS^V12. BJ-DRD cells are derived from BJ cells and contain TERT, oncogenic RAS, a truncated from of p53 (p53DD) that disrupts the tetramerization of endogenous p53, a CDK4(R24C) mutant resistant to inhibition by p16INK4A and p151NK4B (the major negative regulators of CDK4) and cyclin D1. These latter protein substitute for LT. HCT-116, A549, Calu-1, and MIA PaCa-2 are tumor cells derived from cancers (colon, lung, lung and pancreatic, respectively) known to have activating mutations in RAS.

CCRF-CEM parental cells = test: Cell death in taxol/vinblastine resistance panel; format: cell-based; conditions: Homo sapiens
Procedure: (§1) In certain embodiments, the sensitivity to erastin, can be tested in cell lines that are resistant to taxol and vinblastine. The sensitivity of CCRF-CEM parental, and taxol and vinblastine resistant derivative cells to erastin was tested. […] Erastin analogues can be tested to ensure their effectiveness in inducing cell death in tumor cell line which are resistant to taxol or vinblastin, or other ant-tumor agents.

[2] = test system: taxol resistant CCRF-CEM derivative cells; test: Cell death in taxol/vinblastine resistance panel; format: cell-based; conditions: Homo sapiens
Procedure: as §1

[3] = test system: vinblastine resistant CCRF-CEM derivative cells; test: Cell death in taxol/vinblastine resistance panel; format: cell-based; conditions: Homo sapiens
Procedure: as §1

[4] = test system: BJ-TERT/LT/ST/RAS^V12 cells; test: Suppression of erastin-induced cell death (suppressor screen and follow-up); format: cell-based, human; conditions: co-treatment with erastin
VDAC2 = molecular target: T1, VDAC2 (Homo sapiens, UniProt P45880); test: VDAC2 binding assay (competition with radiolabelled erastin A9); conditions: competition with tritium-labeled erastin A9
T1 construct: hexahistidine (pET-15b, thrombin site) (N); made in house; host or cells: E. coli
T1 sequence (P45880 1-294): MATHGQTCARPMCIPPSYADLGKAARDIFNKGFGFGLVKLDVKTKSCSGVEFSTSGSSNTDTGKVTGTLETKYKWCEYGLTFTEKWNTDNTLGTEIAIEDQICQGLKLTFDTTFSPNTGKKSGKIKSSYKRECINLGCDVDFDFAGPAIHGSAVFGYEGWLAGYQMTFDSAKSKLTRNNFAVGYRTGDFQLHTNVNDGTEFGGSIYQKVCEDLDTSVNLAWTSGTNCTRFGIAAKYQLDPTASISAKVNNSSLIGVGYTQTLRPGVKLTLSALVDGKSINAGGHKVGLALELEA
Procedure: Given the interactions between erastin and VDAC using affinity-based target identification and VDAC functional assays, the direct binding of erastin to VDACs was investigated.
VDAC2 protein was isolated from E. coli using a modified version of the protocol originally described by Koppel et al. Bacterial cultures were grown in LB containing 50 mg/L ampicillin to an OD of 0.6, and induced using […] IPTG overnight. Cultures were harvested by centrifugation at 6000×g for 10 min. The pellet was then washed with dH2O and resuspended in buffer (20% sucrose, 20 mM Tris, pH 8.0, […] lysozyme) and incubated at 25° C. for 10 minutes. The lysate was then sonicated for 2×30 seconds and centrifuged at 15000×g for 20 minutes. The pellet was resuspended in resuspension buffer (4.5 M guanidine-HCl, 0.1M NaCl, 20 mM Tris, pH 8.0) and incubated for 1 hour at 25° C. The suspension was then centrifuged (20 minutes, 15000×g), and the supernatant was loaded on a NI-NTA Superflow column (Qiagen) pre-equilibrated with 5 volumes of resuspension buffer. The column was washed with 5 column volumes of resuspension buffer containing 10 mM imidazole. The protein was then eluted using resuspension buffer containing 225 mM imidazole. The eluate was dialysed against 0.1 M NaCl, 20 mM Tris, pH 8.0, and 2% LDAO (Fluka) overnight, and then concentrated via centrifugation to 4 mg/mL.
To assay direct binding of erastin analogs, 40 μg of purified VDAC2 was resuspended in 100 μL of Binding Buffer (25 mM HEPES, pH 8.0, 0.1% BSA, 7 mM MgCl2, 15 mM NaCl), and incubated in the presence of 20 μM radiolabelled erastin A9 and erastin A9 or erastin A8 for 15 minutes. The mixture was then deposited onto Protran BA85 0.45 μM binding filters (Whatman) using vacuum filtration. The filter was rinsed 5 times with 1 mL wash buffer (25 mM HEPES, 0.1% BSA), and then incubated in 5 mL scintillation liquid (Cytoscint, MP Biomedicals). Radioactivity was detected on a LKB Wallac 1211 RACKBETA Liquid Scintillation Counter.

CCOc1ccccc1-n1c(C(C)N2CCN(C(=O)COc3ccc(CN)cc3)CC2)nc2ccccc2c1=O (centres unmarked) [erastin A3]
IC50 [1]: 25000 nM
Selective lethality / activity of erastin analog [1]: retained the ability to selectively kill BJ-TERT/LT/ST/RAS^V12 cells; also recorded: retained the ability to kill BJ-TERT/LT/ST/RAS^V12 cells but not BJ-TERT cells

CC(=O)O[C@H]1C(=O)[C@@]2(C)[C@H]([C@H](OC(=O)c3ccccc3)[C@]3(O)C[C@H](OC(=O)[C@H](O)[C@@H](NC(=O)c4ccccc4)c4ccccc4)C(C)=C1C3(C)C)[C@]1(OC(C)=O)CO[C@@H]1C[C@@H]2O [taxol]
IC50 (CCRF-CEM parental cells): 1 nM
IC50 [2]: 560 nM
IC50 [3]: 1380 nM

C[C@@H]1C[C@@H]([C@H](O)CC2CC(=O)NC(=O)C2)C(=O)[C@@H](C)C1 [cyclohexamide]
Effect on erastin-induced cell death [4]: suppressed

COc1ccc2[nH]cc(CCNC(C)=O)c2c1 [melatonin]
Effect on erastin-induced cell death [4]: did not affect erastin-induced cell death

Cn1cnc(N)c2ncnc1-2 [3-methyladenine]
Effect on erastin-induced cell death [4]: not suppressed

CC(C)NC(=O)N(CCN1CCN(C(=O)COc2ccc(Cl)cc2)CC1)Cc1ccc(F)cc1 [erastin B1]
IC50 [1]: 10000 nM
Selective lethality / activity of erastin analog [1]: inactive

CC[C@]1(O)C[C@@H]2CN(CCc3c([nH]c4ccccc34)[C@@](C(=O)OC)(c3cc4c(cc3OC)N(C)[C@H]3[C@@](O)(C(=O)OC)[C@H](OC(C)=O)[C@]5(CC)C=CCN6CC[C@]43[C@@H]65)C2)C1 [vinblastine]
IC50 (CCRF-CEM parental cells): 1 nM
IC50 [2]: 93 nM
IC50 [3]: 370 nM

Cc1cc(C(C)(C)C)c(O)c(C(C)(C)C)c1 [butylated hydroxytoluene]
Effect on erastin-induced cell death [4]: prevented erastin-induced death

Cc1c(C)c2c(c(C)c1O)CC[C@@](C)(CCC[C@H](C)CCC[C@H](C)CCCC(C)C)O2 [alpha-tocopherol]
Effect on erastin-induced cell death [4]: prevented erastin-induced death

O=c1[nH]c(=O)c2c[nH]nc2[nH]1 [oxypurinol]
Effect on erastin-induced cell death [4]: did not affect erastin-induced cell death

COC(=O)CC(NC(=O)OC(C)(C)C)C(=O)CF (centres unmarked) [Boc-Asp(Ome)-fluoromethyl ketone]
Effect on erastin-induced cell death [4]: does not block cell death induced by erastin

CC(C)(Oc1ccc(C2CC2(Cl)Cl)cc1)C(=O)O (centres unmarked) [ciprofibrate]
Effect on erastin-induced cell death [4]: did not affect erastin-induced cell death

Oc1ncnc2[nH]ncc12 [allopurinol]
Effect on erastin-induced cell death [4]: did not affect erastin-induced cell death

CC(C)NC(=O)N(CCN1CCN(C(=O)COc2ccc(Cl)cc2)CC1)Cc1ccc(CN)cc1 [erastin B2, 1-(4-Aminomethyl-benzyl)-1-(2-{4-[2-(4-chloro-phenoxy)-acetyl]-piperazin-1-yl}-ethyl)-3-isopropyl-urea]
Selective lethality / activity of erastin analog [1]: lacking activity in cells; also recorded: lacks activity
IC50 ([1]; Homo sapiens): > 50000 nM

CCOc1ccccc1-n1c(C(C)N2CCN(C(=O)COc3ccc(Cl)cc3)CC2)nc2cc(NC(C)=O)ccc2c1=O (centres unmarked) [erastin A9, N-[2-(1-{4-[2-(4-chloro-phenoxy)-acetyl]-piperazin-1-yl}-ethyl)-3-(2-ethoxy-phenyl)-4-oxo-3,4-dihydro-quinazolin-7-yl]-acetamide]
IC50 ([1]; Homo sapiens): 1900 nM
Direct binding to VDAC2 (VDAC2): directly binds VDAC2
Kd (VDAC2): 112 nM

CC1=C(/C=C/C(C)=C/C=C/C(C)=C/C=C/C=C(C)/C=C/C=C(C)/C=C/C2=C(C)CCCC2(C)C)C(C)(C)CCC1 [beta-carotene]
Effect on erastin-induced cell death [4]: prevented erastin-induced death

CCOc1ccccc1-n1c(C(C)N2CCN(C(=O)COc3ccc(CN)cc3)CC2)nc2ccccc2c1=O (centres unmarked) [erastin A6, 2-(1-{4-[2-(4-Aminomethyl-phenoxy)-acetyl]-piperazin-1-yl}-ethyl)-3-(2-ethoxy-phenyl)-3H-quinazolin-4-one]
Selective lethality / activity of erastin analog ([1]; listed as ERA-A6): selectively lethal to RAS^V12-expressing cells
